Data published in patent publication US9096889B2, “Compositions and methods for monitoring transmembrane trafficking” (Promega Corporation, priority 2011, dated 2015).

Columns and labels:
[1] = molecular target: beta2-adrenergic receptor (B2AR) fused to firefly luciferase (luc2) (UniProt P07550+P08659, E27Q/G16R/N119G/N50D); conditions: HEK293 cells, serially diluted agonist 30 minutes, trypsin/EDTA, D-luciferin without Mg/ATP, FIG. 2F
AT1R/FFluc fusion = AT1R/FFluc fusion endocytosis assay (reduction of luciferase signal); type: cell-based; conditions: varying concentrations, 15 minutes stimulation, FIG. 8
Procedure: For FFluc-V2R and FFluc-AT1R, plasmid DNA was transfected at 5 ng/well and 0.16 ng/well respectively. For transfection into HeLa cells, plasmid DNA was diluted 1:10 into carrier DNA yielding 5 ng/well plasmid DNA. […] 50 μL per well of luciferase substrate, D-luciferin, was then added to a final concentration of 0.2 mM D-luciferin, 2 mM MgCl2, and 2 mM ATP, and the cells incubated for 30 minutes at 37° C. For AT1R and V2R, 0.02 mM D-luciferin was used. For the luc2-B2AR experiment, 0.01 mM D-luciferin was used. For the FFLuc experiment using the D-luciferin derivative, PBI-3102, 0.02 mM substrate was used. Immediately prior to stimulation, luminescence was measured on a GLOMAX Multi Plus plate reader set to 0.5 s of integration time. Cells were then stimulated with the agonist indicated below ( 1/10 volume addition), and luminescence measured every two minutes in real-time. […] As controls, cells were treated with vehicle (Opti-MEM containing either DMSO or water). Normalized luminescence was determined by dividing the luminescence value (RLUs) of each sample by the luminescence from the same sample prior to stimulation (SEE FIG. 1A-D).
Cells were transfected with plasmid DNA encoding AT1R/FFluc fusion. […] Immediately prior to stimulation, luminescence was measured. Cells were then stimulated with varying concentrations of TRV120027 for 15 minutes, and luminescence detected. […]

Sequence of beta2-adrenergic receptor (B2AR) fused to firefly luciferase (luc2) (P08659+P07550 fused P08659:N50D/P08659:N119G/P07550:G16R/P07550:E27Q): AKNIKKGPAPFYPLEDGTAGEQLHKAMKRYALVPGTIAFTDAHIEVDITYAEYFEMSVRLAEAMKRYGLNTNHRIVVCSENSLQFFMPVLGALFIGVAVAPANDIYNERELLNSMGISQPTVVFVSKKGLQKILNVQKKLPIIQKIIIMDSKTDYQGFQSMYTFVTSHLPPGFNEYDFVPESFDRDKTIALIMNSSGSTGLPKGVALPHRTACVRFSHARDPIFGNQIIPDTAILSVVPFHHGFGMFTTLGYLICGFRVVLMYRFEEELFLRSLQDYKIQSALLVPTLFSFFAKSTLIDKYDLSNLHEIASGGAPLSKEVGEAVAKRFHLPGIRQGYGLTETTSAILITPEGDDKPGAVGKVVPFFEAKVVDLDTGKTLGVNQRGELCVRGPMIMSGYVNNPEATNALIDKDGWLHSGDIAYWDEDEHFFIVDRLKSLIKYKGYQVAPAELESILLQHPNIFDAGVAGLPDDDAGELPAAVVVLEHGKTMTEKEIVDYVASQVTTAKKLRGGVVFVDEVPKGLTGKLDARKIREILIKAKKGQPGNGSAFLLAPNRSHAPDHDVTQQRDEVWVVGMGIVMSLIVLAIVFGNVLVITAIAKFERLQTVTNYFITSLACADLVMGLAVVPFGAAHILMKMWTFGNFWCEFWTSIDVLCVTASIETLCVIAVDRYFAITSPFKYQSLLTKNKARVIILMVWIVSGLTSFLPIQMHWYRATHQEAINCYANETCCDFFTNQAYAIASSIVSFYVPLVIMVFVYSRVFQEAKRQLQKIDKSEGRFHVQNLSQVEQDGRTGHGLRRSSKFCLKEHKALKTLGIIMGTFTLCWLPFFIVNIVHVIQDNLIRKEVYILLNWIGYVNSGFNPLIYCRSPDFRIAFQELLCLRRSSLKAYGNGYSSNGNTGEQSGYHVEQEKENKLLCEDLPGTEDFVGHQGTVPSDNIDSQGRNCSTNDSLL

internalization of AT1R/FFluc fusion proteins (normalized luminescence) (AT1R/FFluc fusion) | SMILES | raw luminescence signal (endocytosis, gain of signal), negative control (B2AR) fusion proteins [1]
 | NC(=O)CC[C@@H]1NC(=O)[C@H](Cc2ccccc2)NC(=O)[C@H](Cc2ccc(O)cc2)NC(=O)[C@@H](N)CSSC[C@@H](C(=O)N2CCC[C@H]2C(=O)N[C@@H](CCCN=C(N)N)C(=O)NCC(N)=O)NC(=O)[C@H](CC(N)=O)NC1=O [arginine vasopressin] | no increase
detected internalization | CC[C@H](C)[C@H](NC(=O)[C@H](Cc1ccc(O)cc1)NC(=O)[C@@H](NC(=O)[C@H](CCCNC(=N)N)NC(=O)CNC)C(C)C)C(=O)N[C@@H](Cc1cnc[nH]1)C(=O)N1CCC[C@H]1C(=O)N[C@H](C)C(=O)O [TRV120027] | 
